Legend:
Experiment in all cases: in vitro susceptibility, MIC by mini broth dilution
Assay type in all cases: cell-based
Haemophilus parasuis = test system: Haemophilus parasuis
Experimental: (§1) in vitro tests of susceptibility of the compounds according to the present disclosure against bacterial strains commonly used in laboratories. In accordance with the Performance Standards for Antimicrobial Disk Susceptibility Tests: Approved Standard published by the US National Committee for Clinical Laboratory Standards, the antibacterial activities of compounds prepared according to examples 5 to 187 were tested. The MICs (minimum inhibitory concentration) of the medicaments prepared according to the examples on the following bacterial strains were measured through mini broth dilution technique. Staphylococcus aureus CVCC26003, Streptococcus equines CVCC556. Actinobacillus pleuropneumoniae CVCC262, Haemophilus parasuis, and Pasteurella multocida CVCC399, which were purchased from the Control Institute of Veterinary Bioproducts and Pharmaceuticals, China. 4.1.2 Culture Media for the Rest Four Bacterial Strains. Liquid culture medium: […] Solid culture medium: […] The strains were taken out of a refrigerator at −20° C. to be revived, and were spreaded by streaking on the solid culture medium with an inoculating loop. The inoculated culture medium was cultured at 35° C. in a constant temperature incubator for 20 h. […] were selected from a well-grown culture plate and streaked on the solid culture medium. The inoculated culture medium was cultured at 35° C. in the constant temperature incubator for 20 h. […] A 96-well plate was used, and 100 μl of DMSO was added into each of wells 2 to 11, and 200 μl of ready-prepared medicament solution was added into the 1st well, 100 μl of the medicament solution was extracted from the 1st well and added into the 2nd well. Double dilution was performed until the 11th well, thereby forming 11 gradients. In this case, compound of parent plate was prepared. 3 μl of double diluted medicament solution was extracted with a 12-channel pipettor and added into wells 1-11 of a new disposable 96-well culture plate. The 12th well thereof is a control well. For each medicament, there are two adjacent rows which are parallel. The transferred compound plate was reserved for later use. […] The dilution ratio was recorded, and the bacterial liquid for the tests was diluted according to the recorded dilution ratio. Subsequently, the bacterial suspension and the liquid culture medium were diluted in the proportion of 1:200. The diluted solution was reserved for later use.

[1] = test system: Streptococcus equines CVCC556; conditions: strain CVCC556
Experimental: as §1

[2] = test system: Actinobacillus pleuropneumoniae CVCC262; conditions: strain CVCC262
Experimental: as §1

[3] = test system: Pasteurella multocida CVCC399; conditions: strain CVCC399
Experimental: as §1

[4] = test system: Staphylococcus aureus CVCC26003; conditions: strain CVCC26003
Experimental: in vitro tests of susceptibility of the compounds according to the present disclosure against bacterial strains commonly used in laboratories. In accordance with the Performance Standards for Antimicrobial Disk Susceptibility Tests: Approved Standard published by the US National Committee for Clinical Laboratory Standards, the antibacterial activities of compounds prepared according to examples 5 to 187 were tested. The MICs (minimum inhibitory concentration) of the medicaments prepared according to the examples on the following bacterial strains were measured through mini broth dilution technique. Staphylococcus aureus CVCC26003, Streptococcus equines CVCC556. Actinobacillus pleuropneumoniae CVCC262, Haemophilus parasuis, and Pasteurella multocida CVCC399, which were purchased from the Control Institute of Veterinary Bioproducts and Pharmaceuticals, China. 4.1.1 Culture Medium for Staphylococcus aureus CVCC26003 Liquid culture medium: CAMHB. […] Solid culture medium: NINA prepared according to the specification of the final product. The strains were taken out of a refrigerator at −20° C. to be revived, and were spreaded by streaking on the solid culture medium with an inoculating loop. The inoculated culture medium was cultured at 35° C. in a constant temperature incubator for 20 h. […] were selected from a well-grown culture plate and streaked on the solid culture medium. The inoculated culture medium was cultured at 35° C. in the constant temperature incubator for 20 h. […] A 96-well plate was used, and 100 μl of DMSO was added into each of wells 2 to 11, and 200 μl of ready-prepared medicament solution was added into the 1st well, 100 μl of the medicament solution was extracted from the 1st well and added into the 2nd well. Double dilution was performed until the 11th well, thereby forming 11 gradients. In this case, compound of parent plate was prepared. 3 μl of double diluted medicament solution was extracted with a 12-channel pipettor and added into wells 1-11 of a new disposable 96-well culture plate. The 12th well thereof is a control well. For each medicament, there are two adjacent rows which are parallel. The transferred compound plate was reserved for later use. […] The dilution ratio was recorded, and the bacterial liquid for the tests was diluted according to the recorded dilution ratio. Subsequently, the bacterial suspension and the liquid culture medium were diluted in the proportion of 1:200. The diluted solution was reserved for later use.

Row | SMILES | MIC values, Haemophilus parasuis (Haemophilus parasuis) | MIC values, Streptococcus equines CVCC556 [1] | MIC values, Actinobacillus pleuropneumoniae CVCC262 [2] [ug/mi] | MIC values, Pasteurella multocida CVCC399 [3] | MIC values, Staphylococcus aureus CVCC26003 [4]
1 | CC[C@H]1OC(=O)[C@H](C)[C@@H](O[C@H]2C[C@@](C)(OC)[C@](O)(CNCCCNCCc3ccc(S(C)(=O)=O)cc3)[C@H](C)O2)[C@H](C)[C@@H](O[C@@H]2O[C@H](C)C[C@H](N(C)C)[C@H]2O)[C@](C)(O)C[C@@H](C)NC[C@H](C)[C@@H](O)[C@]1(C)O [Syzx-61, (2R,3S,4R,5S,8R,10R,11R,12S,13S,14R)-13-[(2,6-dideoxy-3-C-methyl-3-O-methyl-4-C-[[(4-mesylphenylethylamino)propylamino]-methyl]-α-L-ribopyranosyl)oxy]-2-ethyl-3,4,10-trihydroxy-3,5,8,10,12,14-hexamethyl-11-[[3,4,6-trideoxy-3-(dimethylamino)-β-D-xylo-hexopyranosy]oxy]-1-oxa-7-azacyclopentadecan-15-one] | ≦0.25 ug/mi | 0.5 ug/mi | 32 | 1 ug/mi | ≦0.25 ug/mi
2 | CCCN1C[C@H](C)[C@@H](O)[C@](C)(O)[C@@H](CC)OC(=O)[C@H](C)[C@@H](O[C@H]2C[C@@](C)(OC)[C@](O)(CNC(C)(C)C)[C@H](C)O2)[C@H](C)[C@@H](O[C@@H]2O[C@H](C)C[C@H](N(C)C)[C@H]2O)[C@](C)(O)C[C@H]1C [syzx-1 14] | 0.25 ug/mi | 0.25 ug/mi | 0.25 | 0.25 ug/mi | 0.25 ug/mi
3 | CCC1OC(=O)C(C)C(OC2CC(C)(OC)C(O)(CNc3ccccc3)C(C)O2)C(C)C(OC2OC(C)CC(N(C)C)C2O)C(C)(O)CC(C)NCC(C)C(O)C1(C)O [syzx-4, (2R,3S,4R,5S,8R,10R,11R,12S,13S,14R)-13-[(2,6-dideoxy-3-C-methyl-3-O-methyl-4-C-[(phenylamino)methyl]-α-L-ribopyranosyl)oxy]-2-ethyl-3,4,10-trihydroxy-3,5,8,10,12,14-hexamethyl-11-[[3,4,6-trideoxy-3-(dimethylamino)-β-D-xylo-hexopyranosy]oxy]-1-oxa-7-azacyclopentadecan-15-one] | 0.5 ug/mi | ≦0.25 ug/mi | 32 | 1 ug/mi | 1 ug/mi
4 | CC[C@H]1OC(=O)[C@H](C)[C@@H](O[C@H]2C[C@@](C)(OC)[C@](O)(Cn3cccc3)[C@H](C)O2)[C@H](C)[C@@H](O[C@@H]2O[C@H](C)C[C@H](N(C)C)[C@H]2O)[C@](C)(O)C[C@@H](C)NC[C@H](C)[C@@H](O)[C@]1(C)O [syzx-7, (2R,3S,4R,5S,8R,10R,11R,12S,13S,14R)-13-[(2,6-dideoxy-3-C-methyl-3-O-methyl-4-C-[(pyrryl)methyl]-α-L-ribopyranosyl)oxy]-2-ethyl-3,4,10-trihydroxy-3,5,8,10,12,14-hexamethyl-11-[[3,4,6-trideoxy-3-(dimethylamino)-β-D-xylo-hexopyranosy]oxy]-1-oxa-7-azacyclopentadecan-15-one] | ≦0.25 ug/mi | ≦0.25 ug/mi | 2 | 0.25 ug/mi | ≦0.25 ug/mi
5 | CC[C@H]1OC(=O)[C@H](C)[C@@H](O[C@H]2C[C@@](C)(OC)[C@](O)(CNCc3ccc(F)cc3)[C@H](C)O2)[C@H](C)[C@@H](O[C@@H]2O[C@H](C)C[C@H](N(C)C)[C@H]2O)[C@](C)(O)C[C@@H](C)NC[C@H](C)[C@@H](O)[C@]1(C)O [syzx-8, (2R,3S,4R,5S,8R,10R,11R,12S,13S,14R)-13-[(2,6-dideoxy-3-C-methyl-3-O-methyl-4-C-[(4-fluorobenzylamino)methyl]-α-L-ribopyranosyl)oxy]-2-ethyl-3,4,10-trihydroxy-3,5,8,10,12,14-hexamethyl-11-[[3,4,6-trideoxy-3-(dimethylamino)-β-D-xylo-hexopyranosy]oxy]-1-oxa-7-azacyclopentadecan-15-one] | ≦0.25 ug/mi | ≦0.25 ug/mi | 0.5 | 0.25 ug/mi | ≦0.25 ug/mi
6 | CC[C@H]1OC(=O)[C@H](C)[C@@H](O[C@H]2C[C@@](C)(OC)[C@](O)(Cn3ccnc3)[C@H](C)O2)[C@H](C)[C@@H](O[C@@H]2O[C@H](C)C[C@H](N(C)C)[C@H]2O)[C@](C)(O)C[C@@H](C)NC[C@H](C)[C@@H](O)[C@]1(C)O [syzx-9, (2R,3S,4R,5S,8R,10R,11R,12S,13S,14R)-13-[(2,6-dideoxy-3-C-methyl-3-O-methyl-4-C-[(imidazolyl)methyl]-α-L-ribopyranosyl)oxy]-2-ethyl-3,4,10-trihydroxy-3,5,8,10,12,14-hexamethyl-11-[[3,4,6-trideoxy-3-(dimethylamino)-β-D-xylo-hexopyranosy]oxy]-1-oxa-7-azacyclopentadecan-15-one] | ≦0.25 ug/mi | ≦0.25 ug/mi | 0.5 | ≦0.25 ug/mi | ≦0.25 ug/mi
7 | CC[C@H]1OC(=O)[C@H](C)[C@@H](O[C@H]2C[C@@](C)(OC)[C@](O)(CNCc3ccc(OC)cc3)[C@H](C)O2)[C@H](C)[C@@H](O[C@@H]2O[C@H](C)C[C@H](N(C)C)[C@H]2O)[C@](C)(O)C[C@@H](C)NC[C@H](C)[C@@H](O)[C@]1(C)O [syzx-18, (2R,3S,4R,5S,8R,10R,11R,12S,13S,14R)-13-[(2,6-dideoxy-3-C-methyl-3-O-methyl-4-C-[(4-methoxybenzylamino)methyl]-α-L-ribopyranosyl)oxy]-2-ethyl-3,4,10-trihydroxy-3,5,8,10,12,14-hexamethyl-11-[[3,4,6-trideoxy-3-(dimethylamino)-β-D-xylo-hexopyranosy]oxy]-1-oxa-7-azacyclopentadecan-15-one] | 0.5 ug/mi |  | 16 | 2 ug/mi | 0.5 ug/mi
8 | CC[C@H]1OC(=O)[C@H](C)[C@@H](O[C@H]2C[C@@](C)(OC)[C@](O)(CNCc3ccc(Cl)cc3)[C@H](C)O2)[C@H](C)[C@@H](O[C@@H]2O[C@H](C)C[C@H](N(C)C)[C@H]2O)[C@](C)(O)C[C@@H](C)NC[C@H](C)[C@@H](O)[C@]1(C)O [syzx-20, (2R,3S,4R,5S,8R,10R,11R,12S,13S,14R)-13-[(2,6-dideoxy-3-C-methyl-3-O-methyl-4-C-[(4-chlorolbenzylamino)methyl]-α-L-ribopyranosyl)oxy]-2-ethyl-3,4,10-trihydroxy-3,5,8,10,12,14-hexamethyl-11-[[3,4,6-trideoxy-3-(dimethylamino)-β-D-xylo-hexopyranosy]oxy]-1-oxa-7-azacyclopentadecan-15-one] | ≦0.25 ug/mi | ≦0.25 ug/mi | 2 | 0.25 ug/mi | ≦0.25 ug/mi
